# Results taken from US5498632A, “Esters of acyl carnitines with long-chain aliphatic alcohols and pharmaceutical compositions containing same having antibacterial activity” (Sigma-Tau Industrie Farmaceutiche Riunite S.p.A., priority 1992, dated 1996).
# Read-outs that look alike come from different tables or passages of the source.
# Legend:
# Type in all cases: cell-based
# [1] = test system: Gram- bacterial strains; experiment: Mean MIC in broth and resistant strain number, Gram- strains; conditions: 18 h, read-out: Mean MIC values
# Description: (§1) MICs were determined by a standard microdilution test, using serial two-fold dilutions of the substances in Mueller-Hinton broth.
# (§2) The inoculum was prepared from an overnight culture in Mueller-Hinton broth matching the 0.5 Mc Farland (turbidity) standard (BRAY W. E., Clinical Laboratory Methods, 5th Ed. C. V. MOSBY, St. Louis, Mo. 1957), and was adjusted to a final concentration of 5.0×10^4 colony-forming units/ml.
# (§3) Equal volumes (0.1 ml) of both bacterial suspensions and substance solutions were distributed in microtiter plates (Falcon, 96 wells, round bottom), and then placed in a humidified incubator (37° C.) for 18 hours.
# (§4) Evaluation of the Minimal Inhibitory Concentration (MIC) in broth of 16 new substances for Gram- bacterial strains.
# (§5) The following strains were used: Enterobacter (1), Escherichia (3), Klebsiella (3), Proteus (3); Pseudomonas (2); Salmonella (2), Serratia (1).
# [2] = test system: Staphylococcus aureus (LC1); experiment: MIC in broth, Gram+ strains; conditions: S. aureus (LC1), Mueller-Hinton broth, 37° C., 18 hours, read-out: Minimal Inhibitory Concentration (MIC)
# Description: (§6) Evaluation of the Minimal Inhibitory Concentration (MIC) in broth of 15 new substances for Gram+ bacterial strains.
# (§7) The following strains were used: Staphylococcus aureus (4); Streptococcus faecalis (8); Bacillus pumilus (1); Bacillus subtilis (1).
# as §1, §2, §3
# (§8) The results, in terms of MIC values, resistant strain number and mean MIC values versus susceptible strains, are illustrated in Tables 1-6.
# [3] = test system: Staphylococcus aureus (303); experiment: MIC in broth, Gram+ strains; conditions: S. aureus (303), Mueller-Hinton broth, 37° C., 18 hours, read-out: Minimal Inhibitory Concentration (MIC)
# Description: as §6, §7, §1, §2, §3, §8
# [4] = test system: Streptococcus faecalis (518); experiment: MIC in broth, Gram+ strains; conditions: Enterococcus faecalis; S. faecalis (518), Mueller-Hinton broth, 37° C., 18 hours; read-out: Minimal Inhibitory Concentration (MIC)
# Description: as §6, §7, §1, §2, §3, §8
# [5] = test system: Streptococcus faecalis (519); experiment: MIC in broth, Gram+ strains; conditions: Enterococcus faecalis; S. faecalis (519), Mueller-Hinton broth, 37° C., 18 hours; read-out: Minimal Inhibitory Concentration (MIC)
# Description: as §6, §7, §1, §2, §3, §8
# [6] = test system: Gram+ bacterial strains; experiment: Mean MIC in broth and resistant strain number, Gram+ strains; conditions: 18 h, versus susceptible strains
# Description: as §6, §7, §1, §2, §3, §8
# [7] = test system: Klebsiella oxytoca (552); experiment: MIC in broth, Gram- strains; conditions: 18 h, read-out: Minimal Inhibitory Concentration (MIC)
# Description: as §1, §2, §3, §4, §5
# [8] = test system: Pseudomonas aeruginosa (3 E); experiment: MIC in broth, Gram- strains; conditions: 18 h, read-out: Minimal Inhibitory Concentration (MIC)
# Description: as §1, §2, §3, §4, §5
# [9] = test system: Escherichia coli (76 F); experiment: MIC in broth, Gram- strains; conditions: 18 h, E. coli (76 F), read-out: Minimal Inhibitory Concentration (MIC)
# Description: as §1, §2, §3, §4, §5
# [10] = test system: Salmonella typhimurium (D.S.); experiment: MIC in broth, Gram- strains; conditions: Salmonella enterica, 18 h, read-out: Minimal Inhibitory Concentration (MIC)
# Description: as §1, §2, §3, §4, §5
# [11] = test system: Staphylococcus aureus (306 MR); experiment: MIC in broth, Gram+ strains; conditions: S. aureus (306 MR), Mueller-Hinton broth, 37° C., 18 hours, read-out: Minimal Inhibitory Concentration (MIC)
# Description: as §6, §7, §1, §2, §3, §8
# [12] = test system: Staphylococcus aureus (ATCC 14154); experiment: MIC in broth, Gram+ strains; conditions: ATCC14154, S. aureus (ATCC 14154), Mueller-Hinton broth, 37° C., 18 hours, read-out: Minimal Inhibitory Concentration (MIC)
# Description: as §6, §7, §1, §2, §3, §8
# [13] = test system: Streptococcus faecalis (UM); experiment: MIC in broth, Gram+ strains; conditions: Enterococcus faecalis; S. faecalis (UM), Mueller-Hinton broth, 37° C., 18 hours; read-out: Minimal Inhibitory Concentration (MIC)
# Description: as §6, §7, §1, §2, §3, §8
# [14] = test system: Streptococcus faecalis (501); experiment: MIC in broth, Gram+ strains; conditions: Enterococcus faecalis; S. faecalis (501), Mueller-Hinton broth, 37° C., 18 hours; read-out: Minimal Inhibitory Concentration (MIC)
# Description: as §6, §7, §1, §2, §3, §8
# [15] = test system: Streptococcus faecalis (R 2); experiment: MIC in broth, Gram+ strains; conditions: Enterococcus faecalis; S. faecalis (R 2), Mueller-Hinton broth, 37° C., 18 hours; read-out: Minimal Inhibitory Concentration (MIC)
# Description: as §6, §7, §1, §2, §3, §8
# [16] = test system: Streptococcus faecalis (516); experiment: MIC in broth, Gram+ strains; conditions: Enterococcus faecalis; S. faecalis (516), Mueller-Hinton broth, 37° C., 18 hours; read-out: Minimal Inhibitory Concentration (MIC)
# Description: as §6, §7, §1, §2, §3, §8
# [17] = test system: Bacillus pumilus (CN 607); experiment: MIC in broth, Gram+ strains; conditions: B. pumilus (CN 607), Mueller-Hinton broth, 37° C., 18 hours, read-out: Minimal Inhibitory Concentration (MIC)
# Description: as §6, §7, §1, §2, §3, §8
# [18] = test system: Bacillus subtilis (ATCC 6051); experiment: MIC in broth, Gram+ strains; conditions: ATCC6051, B. subtilis (ATCC 6051), Mueller-Hinton broth, 37° C., 18 hours, read-out: Minimal Inhibitory Concentration (MIC)
# Description: as §6, §7, §1, §2, §3, §8
# [19] = test system: Streptococcus faecalis (505); experiment: MIC in broth, Gram+ strains; conditions: Enterococcus faecalis; S. faecalis (505), Mueller-Hinton broth, 37° C., 18 hours; read-out: Minimal Inhibitory Concentration (MIC)
# Description: as §6, §7, §1, §2, §3, §8
# [20] = test system: Streptococcus faecalis (509); experiment: MIC in broth, Gram+ strains; conditions: Enterococcus faecalis; S. faecalis (509), Mueller-Hinton broth, 37° C., 18 hours; read-out: Minimal Inhibitory Concentration (MIC)
# Description: as §6, §7, §1, §2, §3, §8
# [21] = test system: Escherichia coli (92 F); experiment: MIC in broth, Gram- strains; conditions: 18 h, E. coli (92 F), read-out: Minimal Inhibitory Concentration (MIC)
# Description: as §1, §2, §3, §4, §5
# [22] = test system: Proteus vulgaris (UM); experiment: MIC in broth, Gram- strains; conditions: 18 h, read-out: Minimal Inhibitory Concentration (MIC)
# Description: as §1, §2, §3, §4, §5
# [23] = test system: Enterobacter aerogenes (UM); experiment: MIC in broth, Gram- strains; conditions: Klebsiella aerogenes, 18 h, read-out: Minimal Inhibitory Concentration (MIC)
# Description: as §1, §2, §3, §4, §5
# [24] = test system: Helicobacter pylori NCTC 11637; experiment: In vitro synergistic effect of ST 722 and Bismuth Subcitrate
# Description: CBS from the commercially available product De-Nol® (Gist-Brocades, Netherland), i.e. ammonium and potassium double salt of colloidal bismuth citrate hydroxide, was utilized by preparing a suspension of 10 mg/ml CBS in 1N NaOH. After diluting 1:10 in Mueller-Hinton broth, 8 serial two-fold dlitutions in the same medium were made. The compound ST 722 was dissolved in Mueller-Hinton broth at a starting concentration of 100 mcg/ml, then 7 serial two-fold dilutions were carried out.
# The "in vitro" anti-Helicobacter activity of both CBS and ST 722, alone and in association, was tested by utilizing the strain H. pylori NCTC 11637.
# A 24-hour culture of Helicobacter in Columbia agar medium supplemented with Vitox (Oxoid) and 7% defribinated horse blood is washed with Mueller-Hinton broth.
# Following densitometric evaluation (reading at 600 nm), the bacterial suspension was adjusted to a concentration of 1.0×10^9 cells/ml and 0.2-ml volumes were distributed into each well of a 96-well U-bottomed microtiter plate.
# A 1-μl volume of this bacterial suspension was then distributed, by means of a Steers-type replicator apparatus, into the wells of microtiter plates containing the substances, either alone or in association. The final bacterial inoculum contained approximately 1.0×10^6 bacterial cells.
# The procedure described by Garrod et al. (GARROD, L. P. and WATERWORTH, P. M., 1962. Methods of testing combined antibiotic bactericidal action and the significance of the results. J. Clin. Pathol. 15, 328-338) was utilized.
# Briefly, 250-μl volumes of each test substance, either alone or admixed in all the possible combinations, were additioned to 4.5 ml of Mueller-Hinton agar containing 5% defribinated horse serum. Volumes of 0.2 ml/well of the resulting solution were distributed into the wells of a microtiter plate, then seeded with 1 μl/well of a standardized bacterial suspension, and finally incubated for 48 hours at 37° C. in a 10% CO2 atmosphere.
# In order to evaluate the results obtained with combinations of antibiotics it was utilized the method (KROGSTAD, D. J. and MOELLERING, R. C., 1983. Antimicrobial combinations. In LORIAN, V., Antibiotics in Laboratory Medicine, 15, 537-549) based on the calculation of the Fractional Inhibitory Concentration Index (FIC index).
# FIC index is calculated as follows: [formula] Where (A) is the MIC of substance A in the association and (MICA) is the […] of the organism to substance A alone. FICA is the fractional inhibitory concentration of substance A. (B), (MICB) and FICB are defined in the same fashion for substance B.
# Based on these criteria, the effect of a combination of 2 substances is referred to as 'synergistic" when the FIC index is ≤0.5, "additive" with a FIC index=1, and "antagonist" when FIC index is >1.
# [25] = Gram- strains, versus susceptible strains
Compound,"MIC [1, 25]",MIC [2],MIC [3],MIC [4],MIC [5],MIC [6],MIC [7],MIC [8],MIC [9],MIC [10],MIC [11],MIC [12],MIC [13],MIC [14],MIC [15],MIC [16],MIC [17],MIC [18],MIC [19],MIC [20],also measured
CCCCCCCCCCCOC(=O)CC(C[N+](C)(C)C)OC(=O)CCCCCCCCCC (stereo not drawn) [ST 982],> 100 µg/mL,3.12 µg/mL,> 100 µg/mL,1.56 µg/mL,3.12 µg/mL,2.6 µg/mL,> 100 µg/mL,> 100 µg/mL,> 100 µg/mL,> 100 µg/mL,,,,,,,,,,,
CCCCCCCCCCCCCCCC(=O)OC(CC(=O)OCCCCCCCCCCC)C[N+](C)(C)C (stereo not drawn) [ST 983],> 100 µg/mL,> 100 µg/mL,> 100 µg/mL,> 100 µg/mL,> 100 µg/mL,> 100 µg/mL,> 100 µg/mL,> 100 µg/mL,> 100 µg/mL,> 100 µg/mL,,,,,,,,,,,
CCCCCCCCCCCOC(=O)CC(C[N+](C)(C)C)OC(=O)CCCCCCC (stereo not drawn) [ST 1000],,1.56 µg/mL,,3.12 µg/mL,3.12 µg/mL,2.49 µg/mL,> 100 µg/mL,> 100 µg/mL,> 100 µg/mL,> 100 µg/mL,3.12 µg/mL,1.56 µg/mL,,,,,,,,,MIC [1]: > 100 µg/mL
CCCCCCCCCCCCCCCCOC(=O)CC(C[N+](C)(C)C)OC(=O)CC(C)C (stereo not drawn) [ST 1001],,12.5 µg/mL,6.25 µg/mL,3.12 µg/mL,3.12 µg/mL,5.35 µg/mL,,> 100 µg/mL,,> 100 µg/mL,6.25 µg/mL,6.25 µg/mL,3.12 µg/mL,3.12 µg/mL,3.12 µg/mL,3.12 µg/mL,6.25 µg/mL,12.5 µg/mL,3.12 µg/mL,3.12 µg/mL,MIC [1]: > 100 µg/mL; MIC [21]: > 100 µg/mL; MIC [22]: > 100 µg/mL; MIC [23]: > 100 µg/mL
CCCCCCCCCCCCCOC(=O)CC(C[N+](C)(C)C)OC(=O)CC(C)C (stereo not drawn) [ST 1033],100 µg/mL,1.56 µg/mL,3.12 µg/mL,1.56 µg/mL,1.56 µg/mL,2.11 µg/mL,,> 100 µg/mL,,> 100 µg/mL,3.12 µg/mL,3.12 µg/mL,1.56 µg/mL,3.12 µg/mL,1.56 µg/mL,1.56 µg/mL,1.56 µg/mL,3.12 µg/mL,1.56 µg/mL,1.56 µg/mL,MIC [21]: > 100 µg/mL; MIC [22]: > 100 µg/mL; MIC [23]: 100 µg/mL
CCCCCCCCCCCCOC(=O)CC(C[N+](C)(C)C)OC(=O)CC(C)C (stereo not drawn) [ST 1037],62.5 µg/mL,3.12 µg/mL,3.12 µg/mL,1.56 µg/mL,1.56 µg/mL,2.34 µg/mL,,> 100 µg/mL,,> 100 µg/mL,3.12 µg/mL,3.12 µg/mL,1.56 µg/mL,3.12 µg/mL,1.56 µg/mL,1.56 µg/mL,1.56 µg/mL,3.12 µg/mL,3.12 µg/mL,1.56 µg/mL,MIC [21]: 100 µg/mL; MIC [22]: > 100 µg/mL; MIC [23]: 25 µg/mL
"Colloidal Bismuth Subcitrate [CBS, reference compound]",,,,,,,,,,,,,,,,,,,,,"FIC (fractional inhibitory concentration) ([24]; ST 722 with CBS): 0.50; MIC ([24]; substance alone, H. pylori NCTC 11637, 48 hours): 6.25 µg/mL"
